Patent US20090170838A1, “Bicycloheteroaryl compounds as P2X7 modulators and uses thereof” (Renovis, Inc., priority 2005, published 2009)

Key:
[1] = molecular target: T1, P2X7 receptor (Homo sapiens, UniProt Q99572); assay: IL-1β release assay (BzATP-stimulated, LPS/IFN-γ differentiated THP-1 cells, ELISA); type: cell-based; conditions: for inhibition at 0.3 µM: at 0.3 μM (plus symbols); for inhibition at 0.1 µM: at 0.1 μM (asterisk symbols)
T1 construct: host or cells: THP-1 cells differentiated with LPS and IFN-γ
T1 sequence (Q99572 1-595): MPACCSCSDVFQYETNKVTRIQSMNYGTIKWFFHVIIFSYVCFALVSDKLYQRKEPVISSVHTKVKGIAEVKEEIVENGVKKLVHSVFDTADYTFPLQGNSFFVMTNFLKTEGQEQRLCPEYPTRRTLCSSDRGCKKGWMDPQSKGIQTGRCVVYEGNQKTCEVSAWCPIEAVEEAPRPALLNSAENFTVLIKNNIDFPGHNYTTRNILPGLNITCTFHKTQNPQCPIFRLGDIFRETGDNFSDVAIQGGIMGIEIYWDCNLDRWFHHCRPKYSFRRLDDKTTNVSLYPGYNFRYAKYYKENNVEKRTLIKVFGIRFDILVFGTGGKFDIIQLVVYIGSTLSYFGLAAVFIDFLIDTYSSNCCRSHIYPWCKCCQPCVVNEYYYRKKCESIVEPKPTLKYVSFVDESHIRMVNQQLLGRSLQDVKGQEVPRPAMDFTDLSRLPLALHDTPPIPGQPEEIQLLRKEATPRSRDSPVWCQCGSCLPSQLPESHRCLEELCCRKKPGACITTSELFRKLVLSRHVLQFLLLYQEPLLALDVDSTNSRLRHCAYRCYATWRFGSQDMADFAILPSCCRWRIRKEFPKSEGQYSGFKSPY
Method in brief: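 THP-1 cells were differentiated 16 h with LPS and IFN-γ (100 ng/mL each), then primed 2 h with fresh LPS. Compound pretreatment lasted 30 min, followed by 250 uM BzATP for 45 min. Supernatant IL-1β was measured by ELISA, and percent inhibition was calculated from background-adjusted levels.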

[2] = molecular target: T1, P2X7 receptor; assay: Pore formation (Yo-Pro 1 uptake, BzATP-stimulated differentiated THP-1 cells); type: cell-based; conditions: for inhibition at 0.3 µM: at 0.3 μM (plus symbols); for inhibition at 0.1 µM: at 0.1 μM (asterisk symbols)
Experimental: THP-1 cells (ATCC Cat # 285-IF-100) are plated in 96 well plates at a concentration of 200,000 cells per well and allowed to differentiate in RPMI-1640 media (ATCC Cat # 30-2001) containing 10% FBS, 100 IU/mL penicillin, 100 ug/mL streptomycin, 100 ng/mL LPS and 100 ng/mL IFN-γ for 16 hours. Following differentiation, the cells are pretreated with the compound of interest at the appropriate concentration for 30 minutes in RPMI-1640 media containing 100 IU/mL penicillin, 100 ug/mL streptomycin. The pretreatment media is then replaced with assay buffer (20 mM HEPES, 10 mM D-glucose, 118 mM NMDG, 5 mM KCl, 0.4 mM CaCl2) containing 5 uM Yo-Pro 1 (Molecular Probes Cat # Y3603) and the compound of interest at the appropriate concentration and the cells are incubated for an additional 10 minutes. 2′,3′-O-(4-benzoylbenzoyl)-adenosine 5′-triphosphate (Sigma Aldrich Cat# B6396) is then added to a final concentration of 40 uM and fluoroscence readings measured at 491/509 excitation/emission every minute for 50 minutes using a Tecan Safire plate reader. During this time temperature is maintained at of 37° C. Background adjusted fluorescence levels between drug treated and non-treated cells are used to calculate the percent inhibition.

inhibition at 0.3 µM [1] [%] | inhibition at 0.3 µM [2] [%] | inhibition at 0.1 µM [1] [%] | inhibition at 0.1 µM [2] [%] | SMILES
≥ 75 | ≥ 75 | – | – | O=C(CC12CC3CC(CC(C3)C1)C2)Nc1cccc2c1CCN(Cc1ccccc1)C2=O [Compound 702, 2-Adamantan-1-yl-N-(2-benzyl-1-oxo-1,2,3,4-tetrahydro-isoquinolin-5-yl)-acetamide]
≥ 75 | ≥ 75 | – | – | O=C(CC12CC3CC(CC(C3)C1)C2)Nc1cccc2c(=O)n(Cc3ccc4c(c3)OCCO4)ccc12 [Compound 707]
≥ 75 | ≥ 75 | – | – | O=C(CC12CC3CC(CC(C3)C1)C2)Nc1cccc2c(=O)n(CC3CCCO3)ccc12 (stereo not shown) [Compound 709]
≥ 75 | ≥ 75 | – | – | O=C(CC12CC3CC(CC(C3)C1)C2)Nc1cccc2c(=O)n(CC3CCOCC3)ccc12 [Compound 717]
≥ 75 | ≥ 75 | – | – | O=C(CC12CC3CC(CC(C3)C1)C2)Nc1cccc2c1CCN(Cc1ccc(C(F)(F)F)cc1)C2=O [Compound 727]
– | – | 50 to 75 | 50 to 75 | CC12CC3CC(C)(C1)CC(CC(=O)Nc1cccc4c(=O)n(Cc5ccccc5)ccc14)(C3)C2 [Compound 751]
– | – | ≥ 75 | ≥ 75 | O=C(CC12CC3CC(CC(C3)C1)C2)Nc1cccc2c(=O)n(CCN3CCOCC3)ccc12 [Compound 780]
– | ≥ 75 | ≥ 75 | – | O=C(CC12CC3CC(CC(C3)C1)C2)Nc1cccc2c(=O)[nH]ccc12 [Compound 804]
